# Measured values as given in patent US20040057958A1, “Immunogenicity-enhancing carriers and compositions thereof and methods of using the same” (priority 2002, published 2004).
# System: mice
# Experiment: ELISA of antisera from mice immunized with CPT1PaTXL
# Assay type: in vivo
# Details: ten mice inoculated SC/IP with CPT1PaTXL (first two inoculations +PTA); any bleed, including the terminal bleed; TXL coupled to BSA for ELISA
# Procedure: The hybridoma project began with a series of sequential inoculations by subcutaneous (SC) or interperitoneal (IP) injections of 100 μg of CPT1PaTXL formulated in PBS. In addition to the CPT1PaTXL, the first two inoculations also contained […] toxin as adjuvant (PTA). All subsequent inoculations were without PTA and had various amounts of CPT1PaTXL according to the following approximate schedule:
# Ten mice were used in the immunization protocol. At each scheduled test bleed, 100 μl of blood was obtained from the tail, and an ELISA was conducted to evaluate reactivity against either Polyglutamate (PG) alone, Paclitaxel (TXL) or CT-2103. Because of the poor solubility of TXL in aqueous solutions, TXL was coupled to Bovine Serum Albumin, fraction V (Sigma Biochemicals, St. Louis Mo.) for ELISA testing. ELISA assays are performed as described in detail in Harlow, E. and Lane, D., Antibodies, A Laboratory Manual, Cold Spring Harbor Laboratory Press, 1988, pp. 564-569. Reactivity against the P. falciparum peptide epitope was analyzed following the terminal bleed.
compound,measurement,value
"CC(=O)O[C@H]1C(=O)[C@@]2(C)[C@H]([C@H](OC(=O)c3ccccc3)[C@]3(O)C[C@H](OC(=O)[C@H](O)[C@@H](NC(=O)c4ccccc4)c4ccccc4)C(C)=C1C3(C)C)[C@]1(OC(C)=O)CO[C@@H]1C[C@@H]2O [TXL, Paclitaxel]","antibody reactivity (anti-PG, anti-TXL, anti-CT-2103) in ELISA of test bleeds",no detectable
